Results as given in US20110190227A1, “Antagonists of Prostaglandin D2 Receptors” (Amira Pharmaceuticals, Inc., priority 2008, published 2011).
pIC50: −log10 of the molar value.

Experiments:
human DP1 receptor = target: T1, human DP1 receptor (Homo sapiens, UniProt Q13258); experiment: DP1 radioligand membrane binding assay ([3H]BWA868C); settings: human platelet membranes, 2 nM [3H]BWA868C; read-out: hDP1
T1 construct: tissue Biological Specialty Corporation; host or cells: human platelets, membrane preparation
T1 sequence (Q13258 1-359): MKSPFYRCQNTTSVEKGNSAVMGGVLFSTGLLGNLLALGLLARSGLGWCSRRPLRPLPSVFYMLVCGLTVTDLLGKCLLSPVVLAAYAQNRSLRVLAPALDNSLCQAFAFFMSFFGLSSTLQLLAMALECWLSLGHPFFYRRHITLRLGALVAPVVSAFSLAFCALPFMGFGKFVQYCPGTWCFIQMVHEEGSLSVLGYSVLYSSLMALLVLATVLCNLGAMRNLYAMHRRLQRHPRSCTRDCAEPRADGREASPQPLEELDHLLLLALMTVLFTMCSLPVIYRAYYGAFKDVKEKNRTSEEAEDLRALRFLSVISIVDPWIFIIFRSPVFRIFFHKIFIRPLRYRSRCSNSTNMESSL
Procedure: The ability of a compound to bind to the human DP1 receptor was evaluated via a radioligand membrane binding assay using the DP1 selective synthetic ligand [^3H]BWA868C. Packed human platelets (Biological Specialty Corporation), were resuspended in 6 volumes of Hepes/HBSS buffer (10 mM Hepes, 1 mM DTT in Hanks Balanced Salt Solution (HBSS), lysed and centrifuged at 75,000×g to pellet the membranes. Membranes were resuspended in Hepes/HBSS buffer to approximately 12 mg protein/ml. Membranes (20 μg protein/well) are incubated in 96-well plates with 2 nM [^3H]BWA868C and test compound in Assay Buffer (50 mM Hepes, 10 mM MnCl2, 1 mM EDTA, plus or minus 0.2% human serum albumin, pH 7.4) for 60 minutes at room temperature. The reactions are terminated by rapid filtration through Whatman GF/C glass fibre filter plates. The filter plates were pre-soaked in 0.33% polyethylenimine for 30 minutes at room temperature then washed in Wash Buffer (50 mM Hepes, 0.5 M NaCl pH 7.4) prior to harvesting. After harvesting, the filter plates are washed 3 times with 1 ml cold Wash Buffer then dried. Scintillant is then added to the plates and the radioactivity retained on the filters is determined on a Packard TopCount (Perkin Elmer). Specific binding is determined as total radioactive binding minus non-specific binding in the presence of 10 μM BW A868C. IC50s were determined using GraphPad prism analysis of drug titration curves.

human DP2 receptor = target: T2, human DP2 receptor (Homo sapiens, UniProt Q9Y5Y4); experiment: DP2/CRTH2 radioligand binding assay ([3H]PGD2); settings: membranes of HEK293 cells expressing recombinant human DP2, 1 nM [3H]PGD2; read-out: hDP2
T2 construct: expressed in transfected cells
T2 sequence (Q9Y5Y4 1-395): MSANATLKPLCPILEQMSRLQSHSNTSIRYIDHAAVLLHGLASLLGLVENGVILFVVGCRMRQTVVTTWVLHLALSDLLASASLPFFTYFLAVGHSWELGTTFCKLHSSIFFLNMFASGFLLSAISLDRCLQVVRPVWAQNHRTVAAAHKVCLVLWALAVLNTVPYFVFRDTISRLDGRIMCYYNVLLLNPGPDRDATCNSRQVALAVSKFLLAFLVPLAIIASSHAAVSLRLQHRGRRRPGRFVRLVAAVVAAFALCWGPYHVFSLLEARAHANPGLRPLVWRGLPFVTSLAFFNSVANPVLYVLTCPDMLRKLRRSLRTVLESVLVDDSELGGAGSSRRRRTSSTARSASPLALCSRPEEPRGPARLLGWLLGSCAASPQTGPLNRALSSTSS
Procedure: The ability of a compound to bind to the human DP2 receptor is assessed via a radioligand binding assay using [^3H]PGD2. HEK293 cells stably expressing recombinant human DP2 are resuspended in 10 mM Hepes, 7.4 containing 1 mM DTT, lysed and centrifuged at 75,000×g to pellet the membranes. The membranes are resuspended in 10 mM Hepes, 7.4 containing 1 mM DTF and 10% glycerol to approximately 5 mg protein/ml. Membranes (2-10 […]) are incubated in 96-well plates with 1 nM [^3H]PGD2 and test compound in Assay Buffer (50 mM Hepes, 10 mM MnCl2, 1 mM EDTA, plus or minus 0.2% human serum albumin, pH 7.4) for 60 minutes at room temperature. The reactions are terminated by rapid filtration through Whatman GF/C glass fibre filter plates. The filter plates were pre-soaked in 0.33% polythylenimine for 30 minutes at room temperature then washed in Wash Buffer (50 mM Hepes, 0.5 M NaCl pH 7.4) prior to harvesting. After harvesting, the filter plates are washed 3 times with 1 ml cold Wash Buffer then dried. Scintillant is then added to the plates and the radioactivity retained on the filters is determined on a Packard TopCount (Perkin Elmer). Specific binding is determined as total radioactive binding minus non-specific binding in the presence of 10 μM PGD2. IC50s were determined using GraphPad prism analysis of drug titration curves.

O=C(O)Cc1cccc(Oc2ccc(Br)cc2CS(=O)(=O)Cc2ccccc2)c1 [Compound 1-21, [3-(4-Bromo-2-phenylmethanesulfonylmethyl-phenoxy)-phenyl]-acetic acid]
pIC50 (human DP1 receptor): 6.00 to 6.52 | pIC50 (human DP2 receptor): > 6.52

O=C(O)Cc1cccc(Oc2ccc(Br)cc2CSCCc2ccccc2)c1 [Compound 1-13, [3-(4-Bromo-2-phenethylsulfanylmethyl-phenoxy)-phenyl]-acetic acid]
pIC50 (human DP1 receptor): > 6.52 | pIC50 (human DP2 receptor): > 6.52

COc1ccc(CC(=O)O)cc1Oc1ccc(C(F)(F)F)cc1C[S+]([O-])C(C)(C)C (stereo not shown) [Compound 1-9, {4-Methoxy-3-[2-(2-methyl-propane-2-sulfinylmethyl)-4-trifluoromethyl-phenoxy]-phenyl}-acetic acid]
pIC50 (human DP1 receptor): < 6.00 | pIC50 (human DP2 receptor): < 6.00

COc1ccc(CC(=O)O)cc1Oc1ccc(C(F)(F)F)cc1CS(=O)(=O)C(C)(C)C [Compound 1-6, {4-Methoxy-3-[2-(2-methyl-propane-2-sulfonylmethyl)-4-trifluoromethyl-phenoxy]-phenyl}-acetic acid]
pIC50 (human DP1 receptor): < 6.00 | pIC50 (human DP2 receptor): < 6.00

COc1ccc(CC(=O)O)cc1Oc1ccc(C(F)(F)F)cc1CSc1ccccc1 [Compound 1-4, [4-Methoxy-3-(2-phenylsulfanylmethyl-4-trifluoromethyl-phenoxy)-phenyl]-acetic acid]
pIC50 (human DP1 receptor): < 6.00 | pIC50 (human DP2 receptor): > 6.52

O=C(O)Cc1cccc(Oc2ccc(Br)cc2CS(=O)(=O)c2nccs2)c1 [Compound 1-25, {3-[4-Bromo-2-(thiazole-2-sulfonylmethyl)-phenoxy]-phenyl}-acetic acid]
pIC50 (human DP1 receptor): < 6.00 | pIC50 (human DP2 receptor): 6.00 to 6.52

COc1ccc(CC(=O)O)cc1Oc1ccc(Cl)cc1C[S+]([O-])Cc1ccccc1 (stereo not shown) [Compound 1-55, [3-(4-Chloro-2-phenylmethanesulfinylmethyl-phenoxy)-4-methoxyphenyl]-acetic acid]
pIC50 (human DP1 receptor): < 6.00 | pIC50 (human DP2 receptor): 6.00 to 6.52

COc1ccc(CC(=O)O)cc1Oc1ccc(C(F)(F)F)cc1CS(=O)(=O)c1ccccc1 [Compound 1-7, [3-(2-Benzenesulfonylmethyl-4-trifluoromethyl-phenoxy)-4-methoxy-phenyl]-acetic acid]
pIC50 (human DP1 receptor): < 6.00 | pIC50 (human DP2 receptor): 6.00 to 6.52

O=C(O)Cc1cccc(Oc2ccc(Br)cc2C[S+]([O-])Cc2ccccc2)c1 (stereo not shown) [Compound 1-29, [3-(4-Bromo-2-phenylmethanesulfinylmethyl-phenoxy)-phenyl]-acetic acid]
pIC50 (human DP1 receptor): < 6.00 | pIC50 (human DP2 receptor): > 6.52

CN(C)CC[S+]([O-])Cc1cc(Br)ccc1Oc1cccc(CC(=O)O)c1 (stereo not shown) [Compound 1-35, {3-[4-Bromo-2-(2-dimethylamino-ethanesulfinylmethyl)-phenoxy]-phenyl}-acetic acid]
pIC50 (human DP1 receptor): < 6.00 | pIC50 (human DP2 receptor): < 6.00

O=C(O)Cc1cccc(Oc2ccc(Br)cc2CS(=O)(=O)c2ccccc2)c1 [Compound 1-20, [3-(2-Benzenesulfonylmethyl-4-bromo-phenoxy)-phenyl]-acetic acid]
pIC50 (human DP1 receptor): < 6.00 | pIC50 (human DP2 receptor): > 6.52

O=C(O)Cc1cccc(Oc2ccc(Br)cc2CSc2ccc3ccccc3n2)c1 [Compound 1-16, {3-[4-Bromo-2-(quinolin-2-ylsulfanylmethyl)-phenoxy]-phenyl}-acetic acid]
pIC50 (human DP1 receptor): 6.00 to 6.52 | pIC50 (human DP2 receptor): 6.00 to 6.52

COc1ccc(CC(=O)O)cc1Oc1ccc(Cl)cc1CS(=O)(=O)Cc1ccccc1 [Compound 1-56, [3-(4-Chloro-2-phenylmethanesulfonylmethyl-phenoxy)-4-methoxy-phenyl]-acetic acid]
pIC50 (human DP1 receptor): < 6.00 | pIC50 (human DP2 receptor): > 6.52

COc1ccc(CC(=O)O)cc1Oc1ccc(C(F)(F)F)cc1C[S+]([O-])c1ccccc1 (stereo not shown) [Compound 1-10, [3-(2-Benzenesulfinylmethyl-4-trifluoromethyl-phenoxy)-4-methoxy-phenyl]-acetic acid]
pIC50 (human DP1 receptor): < 6.00 | pIC50 (human DP2 receptor): > 6.52

O=C(O)CSCc1cc(Br)ccc1Oc1cccc(CC(=O)O)c1 [Compound 1-19, [3-(4-Bromo-2-carboxymethylsulfanylmethyl-phenoxy)-phenyl]-acetic acid]
pIC50 (human DP1 receptor): < 6.00 | pIC50 (human DP2 receptor): < 6.00

O=C(O)Cc1cccc(Oc2ccc(Br)cc2CS(=O)(=O)c2ccc3ccccc3n2)c1 [Compound 1-24, {3-[4-Bromo-2-(quinoline-2-sulfonylmethyl)-phenoxy]-phenyl}-acetic acid]
pIC50 (human DP1 receptor): < 6.00 | pIC50 (human DP2 receptor): < 6.00

O=C(O)Cc1cccc(Oc2ccc(Br)cc2C[S+]([O-])CC(=O)O)c1 (stereo not shown) [Compound 1-36, [3-(4-Bromo-2-carboxymethanesulfinylmethyl-phenoxy)-phenyl]-acetic acid]
pIC50 (human DP1 receptor): < 6.00 | pIC50 (human DP2 receptor): < 6.00

O=C(O)Cc1cccc(Oc2ccc(Br)cc2CSc2ccccn2)c1 [Compound 1-17, {3-[4-Bromo-2-(pyridin-2-ylsulfanylmethyl)-phenoxy]-phenyl}-acetic acid]
pIC50 (human DP1 receptor): 6.00 to 6.52 | pIC50 (human DP2 receptor): 6.00 to 6.52

COc1ccc(CC(=O)O)cc1Oc1ccc(C(F)(F)F)cc1C[S+]([O-])CCc1ccccc1 (stereo not shown) [Compound 1-8, {4-Methoxy-3-[2-(2-phenyl-ethanesulfinylmethyl)-4-trifluoromethyl-phenoxy]-phenyl}-acetic acid]
pIC50 (human DP1 receptor): < 6.00 | pIC50 (human DP2 receptor): > 6.52

O=C(O)Cc1cccc(Oc2ccc(Br)cc2C[S+]([O-])c2nccs2)c1 (stereo not shown) [Compound 1-33, {3-[4-Bromo-2-(thiazole-2-sulfinylmethyl)-phenoxy]-phenyl}-acetic acid]
pIC50 (human DP1 receptor): < 6.00 | pIC50 (human DP2 receptor): > 6.52

O=C(O)Cc1cccc(Oc2ccc(Br)cc2CS(=O)(=O)c2ccccn2)c1 [Compound 1-23, {3-[4-Bromo-2-(pyridine-2-sulfonylmethyl)-phenoxy]-phenyl}-acetic acid]
pIC50 (human DP1 receptor): < 6.00 | pIC50 (human DP2 receptor): 6.00 to 6.52

O=C(O)Cc1cccc(Oc2ccc(Br)cc2C[S+]([O-])c2ccccc2)c1 (stereo not shown) [Compound 1-28, [3-(2-Benzenesulfinylmethyl-4-bromo-phenoxy)-phenyl]-acetic acid]
pIC50 (human DP1 receptor): < 6.00 | pIC50 (human DP2 receptor): > 6.52

O=C(O)Cc1cccc(Oc2ccc(Br)cc2CSc2nccs2)c1 [Compound 1-14, {3-[4-Bromo-2-(thiazol-2-ylsulfanylmethyl)-phenoxy]-phenyl}-acetic acid]
pIC50 (human DP1 receptor): 6.00 to 6.52 | pIC50 (human DP2 receptor): > 6.52
